Several values for one entry are separate records, joined by “and”; a condition that tells them apart may be missing. Identical values can stand only once. Bridge positions count the residues as written; N and C are the ends. Square brackets hold non-standard residues; d marks the D form. Peptide text beside a SMILES is read from it. R8 = C=CCCCCCC[C@@](C)(N)C(=O)O; S5 = C=CCCC[C@](C)(N)C(=O)O
Tested on: SARS‐CoV‐2 spike (Wuhan‐Hu‐1 strain) pseudovirus with HIV core, entry into 293 T ACE2 expressing cells
Experiment: not given
Assay type: cell-based
Conditions: not given

Molecule	inhibition of viral entry
Ac-FHTSEYDEQNEIEAAQLFKDFLK-NH2 [Scrambled negative control]	None of these compounds including stapled peptide 8 inhibited viral entry
IEEQAKR8FLDKFNS5EAEDLFYQS (sidechain bridge or staple) [Stapled negative control]	None of these compounds including stapled peptide 8 inhibited viral entry
Ac-IEEQAKTFLDKFNHER8EDLFYQS5-NH2 (sidechain bridge or staple) [Peptide 8]	None of these compounds including stapled peptide 8 inhibited viral entry

Tested on: not listed separately
Experiment: circular dichroism
Conditions: PBS; pH 7.4; rt °C; 100 uM

Molecule	helicity [%]
CC(=O)N[C@H](C(=O)N[C@@]1(C)CCCC=CCCC[C@@](C)(C(=O)N[C@@H](CC(N)=O)C(=O)N[C@@H](Cc2c[nH]cn2)C(=O)N[C@@H](CCC(=O)O)C(=O)N[C@@H](C)C(=O)N[C@@H](CCC(=O)O)C(=O)N[C@@H](CC(=O)O)C(=O)N[C@@H](CC(C)C)C(N)=O)NC(=O)[C@H](CCCCN)NC(=O)[C@H](CC(=O)O)NC(=O)[C@H](CC(C)C)NC1=O)[C@@H](C)O	21
Ac-IEEQAKTFLDKFNHE-NH2	9.6
Ac-TFLDKFNHEAEDL-NH2	8.6
CC(=O)N[C@@H](Cc1c[nH]cn1)C(=O)N[C@@H](CCC(=O)O)C(=O)N[C@@]1(C)CCCC=CCCC[C@@](C)(C(=O)N[C@@H](Cc2ccc(O)cc2)C(=O)N[C@@H](CCC(N)=O)C(=O)N[C@@H](CO)C(N)=O)NC(=O)[C@H](CC(C)C)NC(=O)[C@H](CC(=O)O)NC(=O)[C@H](CCC(=O)O)NC1=O (Ac-HE[S5]EDL[S5]YQS-NH2; staple 3-7)	33.4
Ac-HEAEDLFYQS-NH2	5.9
CC[C@H](C)[C@H](NC(C)=O)C(=O)N[C@@H](CCC(=O)O)C(=O)N[C@@H](CCC(=O)O)C(=O)N[C@@H](CCC(N)=O)C(=O)N[C@]1(C)CCCCCC/C=C/CCC[C@@](C)(C(=O)N[C@@H](CC(N)=O)C(=O)N[C@@H](Cc2c[nH]cn2)C(=O)N[C@@H](CCC(=O)O)C(N)=O)NC(=O)[C@H](CCCCN)NC(=O)[C@H](CC(=O)O)NC(=O)[C@H](CC(C)C)NC(=O)[C@H](Cc2ccccc2)NC(=O)[C@H]([C@@H](C)O)NC(=O)[C@H](CCCCN)NC1=O (Ac-IEEQ[R8]KTFLDK[S5]NHE-NH2; staple (E) 5-12)	12.2
CC(=O)N[C@H](C(=O)N[C@@H](Cc1ccccc1)C(=O)N[C@]1(C)CCCCCC/C=C/CCC[C@@](C)(C(=O)N[C@@H](CCC(=O)O)C(=O)N[C@@H](CC(=O)O)C(=O)N[C@@H](CC(C)C)C(N)=O)NC(=O)[C@H](CCC(=O)O)NC(=O)[C@H](Cc2c[nH]cn2)NC(=O)[C@H](CC(N)=O)NC(=O)[C@H](Cc2ccccc2)NC(=O)[C@H](CCCCN)NC(=O)[C@H](CC(=O)O)NC1=O)[C@@H](C)O (Ac-TF[R8]DKFNHE[S5]EDL-NH2; staple (E) 3-10)	16.1

Tested on: not given
Experiment: not given
Assay type: physicochemical
Conditions: pH 7.4

Molecule	% Helicity
Ac-IEEQAKTFR8DKFNHES5EDLFYQS-NH2 (sidechain bridge or staple) [Peptide 5]	31.3%
Ac-IEEQR8KTFLDKS5NHE-NH2 (sidechain bridge or staple) [Peptide 12]	12.2%
Ac-IEEQAKTFLDKFNHE-NH2 [Peptide 11]	9.6%
Ac-IEEQAKTFLDKR8NHEAEDS5FYQS-NH2 (sidechain bridge or staple) [Peptide 6]	23.5%
Ac-TS5LDKS5NHEAEDL-NH2 (sidechain bridge or staple) [Peptide 15]	21.0%
Ac-TFLDKFNHEAEDL-NH2 [Peptide 13]	8.6%
Ac-TFR8DKFNHES5EDL-NH2 (sidechain bridge or staple) [Peptide 14]	16.1%
Ac-IEEQAR8TFLDKFS5HEAEDLFYQS-NH2 (sidechain bridge or staple) [Peptide 4]	57.9%
Ac-IEEQR8KTFLDKS5NHEAEDLFYQS-NH2 (sidechain bridge or staple) [Peptide 3]	55.6%
Ac-IEEQAKTFLDKFR8HEAEDLS5YQS-NH2 (sidechain bridge or staple) [Peptide 7]	54.5%
Ac-HEAEDLFYQS-NH2 [Peptide 9]	5.9%
Ac-IR8EQAKTFS5LKFNHEAEDLFYQS-NH2 (sidechain bridge or staple) [Peptide 2]	35.4%
Ac-IEEQAKTFLDKFNHER8EDLFYQS5-NH2 (sidechain bridge or staple) [Peptide 8]	72% and 72.2%

Source: article PMC7883042 (Peptide Science (Hoboken, N.j.), 2021)
